Results from PubChem BioAssay AID256 (DTP/NCI, 2004).
Toxic doses and inconclusive results are not listed. Rule for the calls: active = survival T/C of 150% or more; inactive = T/C below 125% in these data.

System: CD2F1 mice, L1210 leukemia ip, survival T/C
Test: NCI In Vivo Anticancer Drug Screen. Data for tumor model L1210 Leukemia (intraperitoneal) in CD2F1 (CDF1) mice
Settings: higher = longer survival
Outline: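 In this screen, transplantable tumors were grown in mice given either the compound or its vehicle. Results were expressed as the treated measurement relative to the control measurement.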

[1] = endpoint: mean survival time, dose: 25.0 mg/kg/injection, schedule: Q04DX003 (ip), vehicle: saline with Tween-80
[2] = endpoint: mean survival time, dose: 50.0 mg/kg/injection, schedule: Q04DX003 (ip), vehicle: saline with Tween-80
[3] = endpoint: mean survival time, dose: 100.0 mg/kg/injection, schedule: Q04DX003 (ip), vehicle: saline with Tween-80
[4] = endpoint: mean survival time, dose: 200.0 mg/kg/injection, schedule: Q04DX003 (ip), vehicle: saline with Tween-80
[5] = endpoint: mean survival time, dose: 400.0 mg/kg/injection, schedule: Q04DX003 (ip), vehicle: saline with Tween-80
[6] = endpoint: mean survival time, dose: 100.0 mg/kg/injection, schedule: Q04DX003 (ip), vehicle: saline
[7] = endpoint: mean survival time, dose: 200.0 mg/kg/injection, schedule: Q04DX003 (ip), vehicle: saline
[8] = endpoint: mean survival time, dose: 400.0 mg/kg/injection, schedule: Q04DX003 (ip), vehicle: saline
[9] = endpoint: mean survival time, dose: 100.0 mg/kg/injection, schedule: Q01DX001 (ip), vehicle: saline with Tween-80
[10] = endpoint: mean survival time, dose: 200.0 mg/kg/injection, schedule: Q01DX001 (ip), vehicle: saline with Tween-80
[11] = endpoint: mean survival time, dose: 50.0 mg/kg/injection, schedule: Q01DX009 (ip), vehicle: saline with Tween-80
[12] = endpoint: mean survival time, dose: 100.0 mg/kg/injection, schedule: Q01DX009 (ip), vehicle: saline with Tween-80
[13] = endpoint: mean survival time, dose: 200.0 mg/kg/injection, schedule: Q01DX009 (ip), vehicle: saline with Tween-80
[14] = endpoint: mean survival time, dose: 100.0 mg/kg/injection, schedule: Q04DX002 (ip), vehicle: saline with Tween-80
[15] = endpoint: mean survival time, dose: 200.0 mg/kg/injection, schedule: Q04DX002 (ip), vehicle: saline with Tween-80
[16] = endpoint: mean survival time, dose: 400.0 mg/kg/injection, schedule: Q04DX002 (ip), vehicle: saline with Tween-80

Measured: T/C

CC(=O)NS(=O)(=O)c1ccc([NH-])cc1.CC(=O)NS(=O)(=O)c1ccc([NH-])cc1.[I][Pt+2][I]
inactive: [1] 96 % of control | [2] 94 % of control | [3] 107 % of control | [4] 100 % of control | [5] 103 % of control

CCCCCCCCCCC(N)C(=O)O (stereo not drawn)
inactive: endpoint: mean survival time, dose: 100.0 mg/kg/injection, schedule: Q01DX009 (ip), vehicle: saline 95 % of control | [6] 100 % of control | endpoint: mean survival time, dose: 200.0 mg/kg/injection, schedule: Q01DX009 (ip), vehicle: saline 92 % of control | [7] 97 % of control | endpoint: mean survival time, dose: 400.0 mg/kg/injection, schedule: Q01DX009 (ip), vehicle: saline 95 % of control | [8] 96 % of control

C1CN(CCSSCCN2CCOCC2)CCO1
inactive: endpoint: mean survival time, dose: 50.0 mg/kg/injection, schedule: Q01DX009 (ip), vehicle: saline sonified 100 % of control | endpoint: mean survival time, dose: 100.0 mg/kg/injection, schedule: Q01DX009 (ip), vehicle: saline sonified 100 % of control | [3] 104 % of control | endpoint: mean survival time, dose: 200.0 mg/kg/injection, schedule: Q01DX009 (ip), vehicle: saline sonified 103 % of control | [4] 104 % of control

CCCCOC(=O)C1C2CCC(O2)C1C(N)=O (stereo not drawn)
inactive: endpoint: mean survival time, dose: 25.0 mg/kg/injection, schedule: Q04DX002 (ip), vehicle: saline with Tween-80 95 % of control | endpoint: mean survival time, dose: 50.0 mg/kg/injection, schedule: Q04DX002 (ip), vehicle: saline with Tween-80 101 % of control

N#Cc1ccc(C(Cl)(Cl)Cl)cc1
inactive: [3] 104 % of control | [4] 98 % of control | [5] 96 % of control

Nc1nc(-c2cccc([N+](=O)[O-])c2)c(N=Nc2ccccc2)s1
inactive: [9] 95 % of control | [10] 100 % of control

O=[N+]([O-])/C=C\c1ccc2c(c1)OCO2
inactive: [3] 101 % of control | [4] 93 % of control | [5] 90 % of control

CCC1CCCC[N-]1.CCC1CCCC[N-]1.[Cl][Pt+2][Cl] (stereo not drawn)
inactive: endpoint: mean survival time, dose: 18.8 mg/kg/injection, schedule: Q04DX003 (ip), vehicle: saline with Tween-80 106 % of control | endpoint: mean survival time, dose: 37.5 mg/kg/injection, schedule: Q04DX003 (ip), vehicle: saline with Tween-80 100 % of control | endpoint: mean survival time, dose: 75.0 mg/kg/injection, schedule: Q04DX003 (ip), vehicle: saline with Tween-80 91 % of control | endpoint: mean survival time, dose: 150.0 mg/kg/injection, schedule: Q04DX003 (ip), vehicle: saline with Tween-80 91 % of control | endpoint: mean survival time, dose: 300.0 mg/kg/injection, schedule: Q04DX003 (ip), vehicle: saline with Tween-80 88 % of control

CCCC(C)(COC(N)=O)COC(N)=O
inactive: [3] 96 % of control | [4] 98 % of control | [5] 96 % of control

O=C(O)C(=O)O.[Co].[NH-]CC[NH-].[NH-]CC[NH-]
inactive: endpoint: mean survival time, dose: 100.0 mg/kg/injection, schedule: Q04DX002 (ip), vehicle: saline 98 % of control

CC(=O)C(CCCCCCCCCCC(C(C)=O)C(C)=O)C(C)=O
inactive: [9] 93 % of control | [10] 101 % of control | endpoint: mean survival time, dose: 400.0 mg/kg/injection, schedule: Q01DX001 (ip), vehicle: saline with Tween-80 94 % of control

CN1C(=O)CN=C(c2ccccc2)c2cc(Cl)ccc21
inactive: endpoint: mean survival time, dose: 12.5 mg/kg/injection, schedule: Q01DX009 (ip), vehicle: Klucel (hydroxypropylcellulose) (HPC) 100 % of control | endpoint: mean survival time, dose: 25.0 mg/kg/injection, schedule: Q01DX009 (ip), vehicle: Klucel (hydroxypropylcellulose) (HPC) 104 % of control | endpoint: mean survival time, dose: 50.0 mg/kg/injection, schedule: Q01DX009 (ip), vehicle: Klucel (hydroxypropylcellulose) (HPC) 100 % of control | endpoint: mean survival time, dose: 200.0 mg/kg/injection, schedule: Q01DX009 (ip), vehicle: Klucel (hydroxypropylcellulose) (HPC) 90 % of control

O=C1NCCCN1O
inactive: [6] 104 % of control | [7] 100 % of control | [8] 112 % of control

CC(O)CN1CCN(CC(C)O)CC1.[I][Pt+2][I] (stereo not drawn)
inactive: [1] 102 % of control | [2] 109 % of control | [3] 95 % of control | [4] 104 % of control | [5] 100 % of control

O=Cc1ccccc1O.O=Cc1ccccc1O.O=Cc1ccccc1O.[La]
inactive: [3] 89 % of control | [4] 98 % of control

[Cl][Pt+2][Cl].[NH-]CC(O)C[NH-]
inactive: endpoint: median survival time, dose: 5.0 mg/kg/injection, schedule: Q04DX003 (ip), vehicle: saline 108 % of control | endpoint: median survival time, dose: 10.0 mg/kg/injection, schedule: Q04DX003 (ip), vehicle: saline 103 % of control | endpoint: median survival time, dose: 20.0 mg/kg/injection, schedule: Q04DX003 (ip), vehicle: saline 105 % of control | endpoint: median survival time, dose: 40.0 mg/kg/injection, schedule: Q04DX003 (ip), vehicle: saline 108 % of control

C=CCN(CC=C)C1=CC(=O)C(=O)c2ccccc21
inactive: endpoint: mean survival time, dose: 75.0 mg/kg/injection, schedule: Q01DX001 (ip), vehicle: saline 91 % of control | endpoint: mean survival time, dose: 150.0 mg/kg/injection, schedule: Q01DX001 (ip), vehicle: saline 100 % of control | endpoint: mean survival time, dose: 300.0 mg/kg/injection, schedule: Q01DX001 (ip), vehicle: saline 89 % of control

COc1cc(Cl)ccc1NC(=O)Nc1c(C)n(C)n(-c2ccccc2)c1=O
inactive: [11] 90 % of control | [12] 90 % of control

O=C1NC(=O)C(CCCCO)N1 (stereo not drawn)
inactive: [9] 101 % of control | [10] 106 % of control | endpoint: mean survival time, dose: 300.0 mg/kg/injection, schedule: Q01DX001 (ip), vehicle: saline with Tween-80 98 % of control

OCCNC(=S)Nc1ccccc1
inactive: endpoint: mean survival time, dose: 7.5 mg/kg/injection, schedule: Q01DX009 (ip), vehicle: saline 97 % of control | endpoint: mean survival time, dose: 15.0 mg/kg/injection, schedule: Q01DX009 (ip), vehicle: saline 95 % of control | [1] 98 % of control | endpoint: mean survival time, dose: 30.0 mg/kg/injection, schedule: Q01DX009 (ip), vehicle: saline 89 % of control | [2] 101 % of control | [3] 100 % of control

O=c1[nH]ccc2sccc12
inactive: [12] 100 % of control | [3] 96 % of control | [13] 105 % of control | [5] 103 % of control

C[n+]1c(/C=N/NC(N)=S)ccc2ccccc21
inactive: endpoint: mean survival time, dose: 6.25 mg/kg/injection, schedule: Q01DX009 (ip), vehicle: saline with Tween-80 102 % of control | endpoint: mean survival time, dose: 12.5 mg/kg/injection, schedule: Q01DX009 (ip), vehicle: saline with Tween-80 106 % of control | endpoint: mean survival time, dose: 25.0 mg/kg/injection, schedule: Q01DX009 (ip), vehicle: saline with Tween-80 108 % of control | [11] 100 % of control | [12] 91 % of control | [13] 94 % of control | endpoint: median survival time, dose: 6.25 mg/kg/injection, schedule: Q01DX009 (ip), vehicle: saline with Tween-80 100 % of control | endpoint: median survival time, dose: 12.5 mg/kg/injection, schedule: Q01DX009 (ip), vehicle: saline with Tween-80 100 % of control | endpoint: median survival time, dose: 25.0 mg/kg/injection, schedule: Q01DX009 (ip), vehicle: saline with Tween-80 96 % of control | endpoint: median survival time, dose: 50.0 mg/kg/injection, schedule: Q01DX009 (ip), vehicle: saline with Tween-80 96 % of control | endpoint: median survival time, dose: 100.0 mg/kg/injection, schedule: Q01DX009 (ip), vehicle: saline with Tween-80 101 % of control

O=C(c1ccccc1)C1CC1C(=O)c1ccccc1 (stereo not drawn)
inactive: [14] 100 % of control | [15] 112 % of control | [16] 100 % of control

CCCCCCCCOc1ccc(Cl)cc1Cl
inactive: [14] 96 % of control | [15] 104 % of control | [16] 104 % of control

O=C1NC2C=CC3C=CC=CC2C13 (stereo not drawn)
inactive: endpoint: median survival time, dose: 25.0 mg/kg/injection, schedule: Q04DX002 (ip), vehicle: saline with Tween-80 100 % of control | endpoint: median survival time, dose: 50.0 mg/kg/injection, schedule: Q04DX002 (ip), vehicle: saline with Tween-80 100 % of control | endpoint: median survival time, dose: 100.0 mg/kg/injection, schedule: Q04DX002 (ip), vehicle: saline with Tween-80 100 % of control | endpoint: median survival time, dose: 200.0 mg/kg/injection, schedule: Q04DX002 (ip), vehicle: saline with Tween-80 100 % of control

NNC(=O)c1ccc(Cl)cc1Nc1cccc(Cl)c1
inactive: [3] 112 % of control | [4] 89 % of control

CC(=O)N1c2cc3ccccc3cc2N(C(C)=O)c2cc3ccccc3cc21
inactive: [3] 103 % of control | [4] 103 % of control | [5] 107 % of control

CC(=O)c1ccc(Cc2ccc(C(C)=O)cc2)cc1
inactive: endpoint: mean survival time, dose: 100.0 mg/kg/injection, schedule: Q04DX003 (ip), vehicle: Klucel (hydroxypropylcellulose) (HPC) 103 % of control | endpoint: mean survival time, dose: 200.0 mg/kg/injection, schedule: Q04DX003 (ip), vehicle: Klucel (hydroxypropylcellulose) (HPC) 98 % of control | endpoint: mean survival time, dose: 400.0 mg/kg/injection, schedule: Q04DX003 (ip), vehicle: Klucel (hydroxypropylcellulose) (HPC) 97 % of control
